Source: patent publication US8022052B2, “Inhibition of PPAR gamma expression by specific osteogenic oxysterols” (The Regents of the University of California, priority 2006, dated 2011)
“Also recorded” adds a separate entry of the source. Read-outs that look alike come from different tables or passages of the source.

Assays:
M2 cells = assay: 45Ca incorporation assay measuring mineralization in M2 cells; type: cell-based
From the text: One aspect of the invention is an oxysterol (e.g. an isolated oxysterol) of the invention as represented by Formula I, above. For example, the compounds designated as Oxy 7, Oxy 9, Oxy11, Oxy12, Oxy13, Oxy 14, and Oxy 15 can stimulate at least a measurable amount of a hedgehog-mediated pathway and/or osteomorphogenesis or osteoproliferation (or a marker thereof), and/or can inhibit at least a measurable amount of adipocyte morphogenesis or adipocyte proliferation (or a marker thereof). Oxy 3 and Oxy 4 can act as enhancers of activity in combination with other oxysterols.

[1] = tested on: M2-10B4 (M2) murine pluripotent bone MSC line; assay: Tro-induced adipocyte formation in M2 cells, Oil red O staining; type: cell-based, mouse; settings: for inhibition of Tro-induced adipocyte formation: M2 cells, oxysterol 5 μM
Method: (§1) M2 mouse MSCs were purchased from American Type Culture Collection (ATCC, Rockville, Md., USA). […] Cell culture was performed in 24- and 6-well plates for adipogenic differentiation and gene expression studies, respectively, and treatment with test agents was done in growth medium.
Oil red O staining for detection of adipocytes was performed as previously described. […] The number of adipocytes was quantitated by counting Oil red O-positive cells in five separate fields per well, in three wells per experimental condition. The results are reported as the mean of triplicate determination ±SD.
(§2) Adipocyte formation was examined by Oil red O staining. […] PPARγ expression was assessed by RT-qPCR after treating M2 cells with Tro in the presence or absence of 20S. […] M2 cells at confluence were treated with control vehicle, 10 μM Tro, or 5 μM 20S, alone or in combination for 24 hours (FIG. 2A), 48 hours (FIG. 2B), and 96 hours (FIG. 2C). PPARγ mRNA expression was measured by quantitative real-time PCR.
(§3) After 10 days, adipocyte formation was measured by Oil red O staining. The number of adipocytes was determined by counting Oil red O-positive cells in five separate fields per well, in three wells per experimental condition. […] After 48 h, PPARγ mRNA expression was measured by quantitative real-time PCR. […] Luciferase activity was measured after 24 h and normalized for transfection efficiency using the Renilla luciferase activity.
Synthetic oxysterol compounds were studied for inhibition of adipogenesis and PPAR expression. […] After 10 days of treatment, cells were stained with Oil-red-O to detect adipocytes, and the number of positively stained cells was determined using light microscopy. Data from a representative experiment are reported as the mean of triplicate determination (average of five fields per well, 3 wells per experimental condition) ±SD.

PPARγ = PPARγ mRNA expression in M2 cells by RT-qPCR; type: cell-based, mouse; settings: for reversal of the inhibitory effect of 20S on Tro-induced PPARγ expression: signaling inhibitor
Method: as §1
(§4) Total RNA was extracted with the RNA isolation kit from Stratagene (La Jolla, Calif., USA) according to the manufacturer's instructions. RNA was DNase-treated using DNA-free kit from Ambion (Austin, Tex., USA). Three micrograms of RNA was reverse-transcribed using reverse transcriptase from Stratagene to make single-stranded cDNA. The cDNA was mixed with Qi SYBR Green Supermix (Bio-Rad) for quantitative RT-PCR assay using a Bio-Rad I-cycler IQ quantitative thermocycler. All PCR samples were prepared in triplicate wells of a 96-well plate. After 40 cycles of PCR, melt curves were examined to ensure primer specificity. Fold changes in gene expression were calculated using the ΔΔCt method. […] Primers used are as follows: PPARγ2 (5′-[…]-3′ and 5′-[…]-3′), C/EBPα (5′-[…]-3′ and 5′-[…]-3′), ap2 (5′-[…]-3′ and 5′-[…]-3′), LPL (5′-[…]-3′ and 5′-[…]-[…]), GATA2 (5′-[…]-3′ and 5′-[…]-3′), GATA3 (5′-[…]-3′ and 5′-[…]-3′), GILZ (5′-[…]-3′ and 5′-[…]-3′), and pref-1 (5′-[…]-3′ and 5′-[…]-3′).
as §2, §3
After 48 hours of treatment, RNA was extracted from cells and analyzed for PPARγ expression by Q-RT-PCR. Data from a representative experiment, normalized to GAPDH expression, are reported as the mean of triplicate determinations ±SD.

[2] = tested on: M2-10B4 (M2) murine pluripotent bone MSC line; settings: cited from earlier work
LPL = settings: cyclopamine, data not shown
From the text: as §4

aP2 = aP2 mRNA expression in M2 cells by quantitative real-time PCR; type: cell-based, mouse; settings: cyclopamine, data not shown
Method: . M2 cells at confluence were treated with control vehicle, 10 μM Tro, or 5 μM 20S, alone or in combination for 24 hours (FIG. 4A), 48 hours (FIG. 4B), and 96 hours (FIG. 4C). aP2 mRNA expression was measured by quantitative real-time PCR. Fold changes in gene expression relative to the control were calculated using the ΔΔCt method and reported as the mean of triplicate determination ±SD (p<0.0001 for Tro or Tro+20S vs. control or 20S and p<0.01 for Tro vs. Tro+20S at 24 hours (FIG. 4A); p<0.0001 for Tro or Tro+20S vs. control or 20S and for Tro vs. Tro+20S at 48 hours (FIG. 4B); p<0.0001 for Tro vs. control, 20S, or Tro+20S and p<0.001 for Tro+20S vs. control or 20S at 96 hours (FIG. 4C)).

Molecule: C[C@H](O)[C@@H](C)C1CCC2C3CC=C4C[C@@H](O)CC[C@]4(C)C3CC[C@@]21C (stereo partly shown) [Oxy4]
- incorporation of 45Ca in combination with 20(S)-hydroxycholesterol over 20(S)-hydroxycholesterol alone (M2 cells): enhance

Molecule: Cc1cccc(C[C@](C)(O)C2CCC3C4CC=C5C[C@@H](O)CC[C@]5(C)C4CC[C@@]32C)c1 (stereo partly shown) [Oxy11]
- inhibition of Tro-induced adipocyte formation ([1]; 10 μM Tro, 10 days): inhibitory effect

Molecule: CC(C)CCCC[C@](C)(O)C1CCC2C3CC=C4C[C@@H](O)CC[C@]4(C)C3CC[C@@]21C (stereo partly drawn) [Oxy12, (3S,8S,9S,10R,13S,14S,17S)-2,3,4,7,8,9,10,11,12,13,14,15,16,17-tetradecahydro-17-((S)-2-hydroxy-7-methyloctan-2-yl)-10,13-dimethyl-1H-cyclopenta[α]phenanthren-3-ol]
- inhibition of Tro-induced adipocyte formation ([1]; 10 μM Tro, 10 days): inhibitory effect

Molecule: C=C(C)CCC[C@](C)(O)C1CCC2C3CC=C4C[C@@H](O)CC[C@]4(C)C3CC[C@@]21C (stereo partly shown) [Oxy13]
- inhibition of Tro-induced PPARγ mRNA expression (PPARγ; M2 cells, 10 μM Tro, oxysterol 5 μM, 24, 48, 96 h (20S), 48 h (Oxy13)): inhibits
- inhibition of Tro-induced adipocyte formation ([1]; 10 μM Tro, 10 days): inhibitory effect

Molecule: CC(C)=CCC[C@](C)(O)C1CCC2C3CC=C4C[C@@H](O)CC[C@]4(C)C3CC[C@@]21C (stereo partly shown) [Oxy14]
- inhibition of Tro-induced adipocyte formation ([1]; 10 μM Tro, 10 days): inhibitory effect

Molecule: CC(C)CC[C@@H](O)[C@](C)(O)C1CCC2C3CC=C4C[C@@H](O)CC[C@]4(C)C3CC[C@@]21C (stereo partly shown) [Oxy16]
- inhibition of Tro-induced adipocyte formation ([1]; 10 μM Tro, 10 days): inhibitory effect

Molecule: CC[C@H](O)[C@@H](C)C1CCC2C3CC=C4C[C@@H](O)CC[C@]4(C)C3CC[C@@]21C (stereo partly shown) [Oxy 3]
- incorporation of 45Ca in combination with 20(S)-hydroxycholesterol over 20(S)-hydroxycholesterol alone (M2 cells): enhance

Molecule: CC(C)CC[C@@H](O)[C@@H](C)[C@H]1CC[C@H]2[C@@H]3CC=C4C[C@@H](O)CC[C@]4(C)[C@H]3CC[C@]12C [Oxy 22R, 22(R)-hydroxycholesterol]
- adipogenic differentiation of M2 cells (previously reported) [2]: inhibit

Molecule: CC(C)CC[C@H](O)[C@@H](C)[C@H]1CC[C@H]2[C@@H]3CC=C4C[C@@H](O)CC[C@]4(C)[C@H]3CC[C@]12C [Oxy 22S, 22(S)-hydroxycholesterol]
- adipogenic differentiation of M2 cells (previously reported) [2]: inhibit

Molecule: COc1cccc(-c2cc(=O)c3ccccc3o2)c1N [PD98059]
- reversal of the inhibitory effect of 20S on Tro-induced PPARγ expression (PPARγ; M2 cells): 45%
- reversal of the inhibitory effects of 20S on Tro-induced adipocyte formation ([1]; 10-day M2 cultures, Cyclopamine 4 μM, Dkk-1 1 μg/mL, PD98059 20 μM): 50%

Molecule: CC1=C2C[C@H]3[C@@H](CC=C4C[C@@H](O)CC[C@@]43C)[C@@H]2CC[C@]12O[C@@H]1C[C@H](C)CN[C@H]1[C@H]2C [cyclopamine]
- reversal of the inhibitory effect of 20S on Tro-induced PPARγ mRNA expression (in words) (PPARγ): fully reversed; also recorded: completely abolished; also recorded: blocks; also recorded: completely blocked
- reversal of the inhibitory effect of Shh on Tro-induced PPARγ mRNA expression (in words) (PPARγ): fully reversed; also recorded: completely abolished; also recorded: blocks; also recorded: completely reversed; also recorded: completely blocked
- reversal of the inhibitory effects of 20S on Tro-induced adipocyte formation [1]: 70%
- reversal of the inhibitory effects of Shh on Tro-induced adipocyte formation [1]: 100%
- reversal of the anti-adipogenic effects of 20S (in words) ([1]; 4 μM cyclopamine 2-h pretreatment, 10 μM Tro, 5 μM 20S, 10 days): reversed; also recorded: blocks; also recorded: did not completely reverse
- reversal of the anti-adipogenic effects of Shh (in words) ([1]; cyclopamine 2-h pretreatment, 10 μM Tro, 200 ng/mL Shh, 10 days): completely reversed; also recorded: blocks
- additional effect on adipocyte formation of increasing the dose of cyclopamine ([1]; cyclopamine from 4 to 8 μM, Tro+20S, data not shown): did not have any additional effect
- reversal of the inhibitory effects of 20S on LPL expression (LPL): reversed
- reversal of the inhibitory effects of 20S on aP2 expression (aP2): reversed

B1: Dkk-1: canonical Wnt signaling inhibitor (protein, UniProt O94907 32-266, looked up)
Dickkopf-related protein 1: TLNSVLNSNAIKNLPPPLGGAAGHPGSAVSAAPGILYPGGNKYQTIDNYQPYPCAEDEECGTDEYCASPTRGGDAGVQICLACRKRRKRCMRHAMCCPGNYCKNGICVSSDQNHFRGEIEETITESFGNDHSTLDGYSRRTTLSSKMYHTKGQEGSVCLRSSDCASGLCCARHFWSKICKPVLKEGQVCTKHRRKGSHGLEIFQRCYCGEGLSCRIQKDHHQASNSSRLHTCQRH
- reversal of the inhibitory effect of 20S on Tro-induced PPARγ expression (PPARγ; M2 cells): 10%
